The IC50 is the concentration that inhibits the measured activity by half. Low values mean higher potency, high ones lower potency. For orientation: Ki means a measure of affinity in units of concentration, obtained from inhibition or displacement.

The target of assay [1] is T1, hLAT1 (LAT1, SLC7A5) (Homo sapiens, UniProt Q01650).
T1 construct: recombinant hLAT1 WT alone (no CD98/SLC3A2), expressed in E. coli Rosetta(DE3)pLysS, purified on HisTrap (His tag implied), reconstituted in proteoliposomes with cholesterol
T1 sequence (Q01650 whole entry): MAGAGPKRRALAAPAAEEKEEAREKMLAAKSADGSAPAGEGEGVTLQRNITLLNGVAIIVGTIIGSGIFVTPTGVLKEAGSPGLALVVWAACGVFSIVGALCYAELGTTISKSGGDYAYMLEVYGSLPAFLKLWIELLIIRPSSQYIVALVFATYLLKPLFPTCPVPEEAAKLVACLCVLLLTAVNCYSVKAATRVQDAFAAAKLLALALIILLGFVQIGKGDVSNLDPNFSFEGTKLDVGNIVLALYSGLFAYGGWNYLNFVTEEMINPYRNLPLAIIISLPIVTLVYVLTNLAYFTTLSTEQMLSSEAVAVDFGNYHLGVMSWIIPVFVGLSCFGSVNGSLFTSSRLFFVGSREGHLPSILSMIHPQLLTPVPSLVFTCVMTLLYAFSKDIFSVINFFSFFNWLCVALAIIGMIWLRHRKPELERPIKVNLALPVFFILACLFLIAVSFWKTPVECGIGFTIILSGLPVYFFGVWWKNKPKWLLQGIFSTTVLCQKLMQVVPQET
Nature of the assay: inhibition of [3H]-histidine uptake in proteoliposomes, dose-response. Format: biochemical.

The target in assay [2] is T1, hLAT1 (LAT1, SLC7A5). Briefly: inhibition of [3H]-histidine uptake in proteoliposomes, Lineweaver-Burk. The class given is biochemical.

`C=CC[S@+]([O-])C[C@H](N)C(=O)O` [alliin]: the IC50 at hLAT1 (LAT1, SLC7A5) [1] came out at 79 ± 9 µM. This molecule returned a Ki on hLAT1 (LAT1, SLC7A5) [2] of 50 ± 19 µM.

The values are drawn from publication PMC8987110, “The Nutraceutical Alliin From Garlic Is a Novel Substrate of the Essential Amino Acid Transporter LAT1 (SLC7A5)” (Frontiers in Pharmacology, 2022).
